Experimental data published in publication PMC9182007, “Statistical Methods in the Study of Protein Binding and Its Relationship to Drug Bioavailability in Breast Milk” (Molecules, 2022).
Like-named read-outs stand apart in the source and are kept apart here.

Columns and labels:
[1] = Table S1, coded 1/0; ref DrugBank [7]; cited from earlier work
[2] = Table S1, milk/plasma drug concentration ratio, in vivo; cited from earlier work
[3] = biological target: T1, bovine serum albumin (BSA) (Bos taurus, UniProt P02769); test: NP TLC on plates impregnated with bovine serum albumin; format: binding; conditions: Table S3, NP plate impregnated with 2 mg/mL BSA; pH 7.4 mobile phase
T1 construct: purchased Sigma Aldrich
T1 sequence (P02769 25-607): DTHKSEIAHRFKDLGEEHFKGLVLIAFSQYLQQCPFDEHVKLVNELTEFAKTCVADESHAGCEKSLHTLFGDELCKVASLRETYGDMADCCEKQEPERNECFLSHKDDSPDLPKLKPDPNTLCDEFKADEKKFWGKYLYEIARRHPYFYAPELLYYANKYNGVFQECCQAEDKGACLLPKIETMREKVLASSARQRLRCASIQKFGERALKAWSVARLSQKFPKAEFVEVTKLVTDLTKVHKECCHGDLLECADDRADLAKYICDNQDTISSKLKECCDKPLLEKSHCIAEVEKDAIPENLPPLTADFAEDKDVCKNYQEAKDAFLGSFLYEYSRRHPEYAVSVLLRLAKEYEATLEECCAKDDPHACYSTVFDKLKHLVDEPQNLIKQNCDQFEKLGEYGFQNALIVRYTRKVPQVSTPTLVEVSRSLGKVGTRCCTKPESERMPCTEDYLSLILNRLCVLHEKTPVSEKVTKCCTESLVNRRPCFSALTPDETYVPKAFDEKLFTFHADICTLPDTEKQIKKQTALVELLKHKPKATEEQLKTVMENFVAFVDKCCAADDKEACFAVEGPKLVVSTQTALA
From the text: (§1) Chromatographic descriptors were obtained in experiments, thin layer chromatography in normal (NP TLC) and reversed mode (RP TLC). The stationary phase was modified with bovine serum albumin (BSA). TLC was the source of retention factor (Rf) values, denoted in statistical models as NP and RP.
(§2) For TLC chromatography, glass plates 20 × 20 cm from Merck, covered with silica gel with the addition of a fluorescent indicator, were used. Normal phase (NP) plates were used with standard Merck TLC Silica gel 60 F254 plates, while in reverse phase (RP) silanized plates RP-2: Merck TLC Silica gel 60 RP-2 F254 were used.
(§3) The stationary phase of the plates, both NP and RP, was modified with an aqueous solution of bovine serum albumin purchased from Sigma Aldrich (bovine serum albumin, lyophilized powder).
(§4) The impregnation of the plates was carried out with a 2 mg/mL solution applied to the surface using a Desaga SG 1 hand sprayer; the plates were then air dried. […] Normal and reversed phase thin layer chromatography (NP TLC and RP TLC respectively) was performed using silica-gel-coated glass plates. Half of them were covered with 2 mg/mL bovine serum albumin solution and half remained pure.
(§5) The mobility of the compounds was also determined on the plates with no protein as a modifier. […] The acetate buffer (20 mM) was prepared by dissolving 1.54 g of ammonium acetate in 1 L of distilled water. The pH was then adjusted with a concentrated ammonia solution using a pH meter. The plates were developed in standard, vertical chromatographic chambers, each time using 100 mL of the mobile phase, after the chamber was previously saturated with solvent vapors for approximately 1 h.
(§6) The unfolded-protein-impregnated plates and the control plates were scanned with a Desaga CD 60 densitometer. The values of the delay factor (Rf) were collected, i.e., the ratio of the distance traveled by the substance to be analyzed to the distance traveled through the front of the mobile phase. […] The experiment was repeated (for both BSA-coated and control plates) and the Rf values pooled are the mean of both series of experiments.

[4] = biological target: T2, human serum albumin (HSA) (Homo sapiens, UniProt P02768); test: in vitro; conditions: immobilized hsa column, pH 7.4
T2 sequence (P02768 25-609): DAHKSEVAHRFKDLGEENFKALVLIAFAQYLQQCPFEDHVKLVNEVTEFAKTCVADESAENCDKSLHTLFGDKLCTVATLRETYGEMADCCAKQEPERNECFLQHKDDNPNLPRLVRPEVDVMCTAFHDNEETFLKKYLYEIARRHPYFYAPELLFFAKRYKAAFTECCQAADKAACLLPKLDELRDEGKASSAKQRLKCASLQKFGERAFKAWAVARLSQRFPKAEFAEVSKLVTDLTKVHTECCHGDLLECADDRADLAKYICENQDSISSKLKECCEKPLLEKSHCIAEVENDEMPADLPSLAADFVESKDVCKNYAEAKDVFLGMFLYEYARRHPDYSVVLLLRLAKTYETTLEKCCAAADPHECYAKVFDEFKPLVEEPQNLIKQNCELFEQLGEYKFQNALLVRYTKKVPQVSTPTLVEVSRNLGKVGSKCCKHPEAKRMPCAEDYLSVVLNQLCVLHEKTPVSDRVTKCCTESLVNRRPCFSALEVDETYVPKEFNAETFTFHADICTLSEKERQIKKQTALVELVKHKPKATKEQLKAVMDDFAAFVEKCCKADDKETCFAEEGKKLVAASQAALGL
Method: (§7) High performance liquid chromatography was performed using immobilized human serum albumin column (HPLCHSA) and immobilized artificial membrane (HPLCIAM). HPLC was the source of the log k values (logarithm of retention factor), log kHSA and log kIAM.
(§8) High performance liquid chromatography was performed using a chromatography column with immobilized human serum albumin. The assay was performed on a Perkin Elmer Series 200 instrument connected to a UV-VIS spectrometer as detector. The analytical wavelength was the same for all compounds at 210 nm. […] The acetate buffer was prepared by dissolving 0.77 g of ammonium acetate in 1 L of distilled water. The pH was then adjusted with a concentrated ammonia solution using a pH meter.
(§9) The phase flow through the system was set to 0.9 mL/min as recommended by the column manufacturer. The solutions were delivered to the column using an autosampler syringe, the injection size was 10 µL. Since the column could not be thermostated, the room was kept at a constant temperature of 25 degrees Celsius.
(§10) Chromatographic data (retention coefficient, k, and derivative, log k) were obtained with TotalChrom software connected to an HPLC instrument. […] The experiment was then repeated and the collected retention rates were the mean values of both series.

[5] = Milk-to-plasma (M/P) drug concentration ratio obtained in vivo, from literature; parameters: species or system human; conditions: Table S1, scale of drug penetration into milk 1-4
[6] = biological target: T1, bovine serum albumin (BSA); test: RP TLC on plates impregnated with bovine serum albumin; format: binding; conditions: Table S4, RP plate impregnated with 2 mg/mL BSA; pH 7.4 mobile phase
From the text: as §1, §2, §3, §4, §5, §6

plasma protein = conditions: ref DrugBank [7], cited from earlier work
[7] = HPLC on immobilized artificial membrane column (HPLCIAM); format: physicochemical; conditions: for log k IAM: Table S5, IAM column, pH 7.4; for k IAM: Table S5, retention factor, IAM column, phosphate buffer pH 7.4/acetonitrile 80:20
[8] = NP TLC on non-impregnated control plates; format: physicochemical; conditions: Table S3, non-impregnated NP plate; acetonitrile/acetate buffer pH 7.4/methanol 60:20:20
Method: as §2
Normal and reversed phase thin layer chromatography (NP TLC and RP TLC respectively) was performed using silica-gel-coated glass plates. Half of them were covered with 2 mg/mL bovine serum albumin solution and half remained pure.
as §5, §6

[9] = biological target: T2, human serum albumin (HSA); conditions: for log k HSA: human, immobilized hsa column
Method: as §7, §8, §9, §10

[10] = RP TLC on non-impregnated control plates; format: physicochemical; conditions: Table S4, non-impregnated RP plate; acetonitrile/acetate buffer pH 7.4/methanol 60:20:20
[11] = source not stated, cited from earlier work
[12] = Table S1, plasma protein binding given as fraction
[13] = Table S5, retention factor, HSA column, pH 7.4, 25 degrees Celsius

Compound	CNS+/- [1]	M/P [2]	NP (Rf, BSA-impregnated NP plate) [3]	chromatographic logD [4]	M/P code [5]	RP (Rf, BSA-impregnated RP plate) [6]	PB (plasma protein; [12])	log k IAM [7]	k IAM [7]	CNP (Rf, control NP plate) [8]	k HSA [9, 13]	CRP (Rf, control RP plate) [10]	BB vivo ([11]; Table S1)	k HSA ([9]; pH 7.4)	BB vivo ([11]; Table S6, external group)	PB (plasma protein; Table S6, external group (n = 38), given as fraction)	log k HSA ([9]; pH 7.4)
CC(=O)Oc1ccccc1C(=O)O [acetylsalicylic acid]	1	1.08	0.90	-0.51	3 (3 range 0.81–1.20—possibly over the safety limit)	0.99	0.995	-1.52	0.03	0.89	0.31	0.98	–	–	–	–	–
CC(C)C[C@H]1C(=O)N2CCC[C@H]2[C@]2(O)O[C@](NC(=O)[C@@H]3C=C4c5cccc6[nH]c(Br)c(c56)C[C@H]4N(C)C3)(C(C)C)C(=O)N12 [bromocriptine]	–	–	0.96	0.91	–	0.70	0.93	1.10	12.69	0.95	–	0.69	-1.100	8.09	–	–	–
O=C1CC2(CCCC2)CC(=O)N1CCCCN1CCN(c2ncccn2)CC1 [buspirone]	–	–	–	–	–	–	–	0.84	7.00	–	–	–	0.480	–	–	–	–
CN(C)CCCN1c2ccccc2Sc2ccc(Cl)cc21 [chlorpromazine]	–	–	0.43	1.12	–	0.50	0.9	1.77	58.85	0.43	13.33	0.49	0.950	–	–	–	–
C[C@H]1c2cccc(O)c2C(=O)C2=C(O)[C@]3(O)C(=O)C(C(N)=O)=C(O)[C@@H](N(C)C)[C@@H]3[C@@H](O)[C@@H]21 [doxycycline]	0	0.34	0.05	0.23	1 (Code 1 corresponds to drugs with an M/P value <0.40—completely safe)	0.09	0.9	0.24	1.76	0.06	1.68	0.08	–	–	–	–	–
CCOC(=O)[C@H](CCc1ccccc1)N[C@@H](C)C(=O)N1CCC[C@H]1C(=O)O [enalapril]	0	0.02	0.33	-0.47	1 (Code 1 corresponds to drugs with an M/P value <0.40—completely safe)	0.58	0.55	-1.29	0.05	0.33	0.34	0.60	–	–	–	–	–
CCO [ethanol]	–	–	–	–	–	–	–	–	–	–	–	–	–	–	-0.16	0.00	–
OCCN1CCN(CCC=C2c3ccccc3Sc3ccc(C(F)(F)F)cc32)CC1 [flupenthixol]	1	1.15	0.52	1.19	3 (3 range 0.81–1.20—possibly over the safety limit)	0.66	0.95	1.71	51.21	0.51	15.36	0.66	–	–	–	–	–
COc1ccc2c(c1)c(CC(=O)O)c(C)n2C(=O)c1ccc(Cl)cc1 [indomethacin]	–	–	–	–	–	–	0.97	0.03	1.08	–	–	–	-1.260	–	–	–	–
Nc1nnc(-c2cccc(Cl)c2Cl)c(N)n1 [lamotrigine]	–	–	–	–	–	–	0.55	-0.15	0.71	0.89	–	0.87	0.480	–	–	–	–
O=C1Nc2ccc(Cl)cc2C(c2ccccc2Cl)=NC1O (stereo not drawn) [lorazepam]	–	–	–	–	–	–	0.87	0.96	9.04	–	–	–	0.440	2.21	–	–	–
C[C@](N)(Cc1ccc(O)c(O)c1)C(=O)O [methyldopa]	0	0.265	0.37	-0.44	1 (Code 1 corresponds to drugs with an M/P value <0.40—completely safe)	0.86	0.2	-1.02	0.10	0.38	0.36	0.85	–	–	–	–	–
CCCN1C[C@H](CSC)C[C@@H]2c3cccc4[nH]cc(c34)C[C@H]21 [pergolide]	1	–	0.47	–	–	0.53	0.9	–	–	0.48	0.07	0.55	0.300	–	–	–	-1.15
CN(C)CCCN1c2ccccc2Sc2ccccc21 [promazine]	1	–	0.37	–	–	0.51	0.94	-1.02	0.10	0.39	8.9	0.51	0.880	–	–	–	0.95
CN(C)CCc1c[nH]c2ccc(Cn3cncn3)cc12 [rizatriptan]	1	–	0.20	–	–	–	–	0.40	2.53	0.20	2.06	–	0.780	–	–	–	0.31
Cn1c(=O)c2[nH]cnc2n(C)c1=O [theophylline]	–	–	–	–	–	–	–	-0.94	0.12	–	–	–	-0.341	–	–	–	–
CSc1ccc2c(c1)N(CCC1CCCCN1C)c1ccccc1S2 (stereo not drawn) [thioridazine]	–	–	0.43	–	–	0.40	–	1.68	47.61	0.47	18.57	0.40	0.285	–	–	–	1.27
O=c1n(CCCN2CCN(c3cccc(Cl)c3)CC2)nc2ccccn12 [trazodone]	1	0.53	0.72	0.35	2 (2 corresponds to the range of 0.40–0.80—at the safety limit)	0.74	0.92	0.97	9.30	0.71	2.22	0.76	–	–	–	–	–
CCCC(CCC)C(=O)O [valproic acid]	1	0.05	0.67	0.65	1 (Code 1 corresponds to drugs with an M/P value <0.40—completely safe)	0.04	0.85	-1.09	0.08	0.69	4.46	0.04	–	–	–	–	–
Cc1ccc(-c2nc3ccc(C)cn3c2CC(=O)N(C)C)cc1 [zolpidem]	–	–	–	–	–	–	–	0.42	2.60	–	–	–	-0.480	1.77	–	–	–
